Assay results taken from ChEMBL document CHEMBL1201862, “PubChem BioAssay data set” (2004).
Activity calls are given as the source filed them.

Columns and labels:
Cytochrome P450 1A2 = molecular target: T1, Cytochrome P450 1A2 (Homo sapiens, UniProt P05177);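 further: PubChem cytochrome P450 panel assay, CYP1A2 panel member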
T1 sequence (P05177 whole entry): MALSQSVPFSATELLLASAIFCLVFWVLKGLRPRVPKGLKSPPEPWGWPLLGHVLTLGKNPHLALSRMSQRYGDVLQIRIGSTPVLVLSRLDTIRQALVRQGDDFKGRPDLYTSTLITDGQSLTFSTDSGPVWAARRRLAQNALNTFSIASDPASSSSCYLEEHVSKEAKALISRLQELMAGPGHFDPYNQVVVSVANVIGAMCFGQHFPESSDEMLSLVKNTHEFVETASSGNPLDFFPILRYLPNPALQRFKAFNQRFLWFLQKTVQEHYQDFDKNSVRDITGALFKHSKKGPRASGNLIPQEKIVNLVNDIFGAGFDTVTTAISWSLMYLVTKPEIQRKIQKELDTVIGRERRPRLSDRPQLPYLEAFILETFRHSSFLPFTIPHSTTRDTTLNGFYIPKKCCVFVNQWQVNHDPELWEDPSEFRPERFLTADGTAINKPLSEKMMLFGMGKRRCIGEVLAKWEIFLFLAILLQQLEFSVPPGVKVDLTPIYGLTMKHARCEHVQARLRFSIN

Cytochrome P450 2D6 = Cytochrome P450 2D6 (Homo sapiens, UniProt P10635);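 further: CYP2D6 member of a cytochrome P450 panel assay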
Cytochrome P450 2C9 = Cytochrome P450 2C9 (Homo sapiens, UniProt P11712)
Cytochrome P450 2C19 = Cytochrome P450 2C19 (Homo sapiens, UniProt P33261); test: Cytochrome panel assay with activity outcomes. Panel member name: p450-cyp2c19 Compounds with AC50 equal or less than 10 uM are considered active; assay type: functional; settings: read-out: AC50
A-375 = test: A375 melanoma cell viability reduction, dose response, counter-screen for MITF modulator project, cherry-pick samples, set 2 (AID 540335); assay type: functional, cell-based; settings: Homo sapiens
[1] = molecular target: T2, Microphthalmia-associated transcription factor (Homo sapiens, UniProt O75030); test: TRPM1 promoter luciferase signal decrease, dose response, MITF inhibitor project, cell-based, SK-MEL-5, cherry-picked, set 3 (AID 493073); assay type: functional
T2 sequence (O75030 whole entry): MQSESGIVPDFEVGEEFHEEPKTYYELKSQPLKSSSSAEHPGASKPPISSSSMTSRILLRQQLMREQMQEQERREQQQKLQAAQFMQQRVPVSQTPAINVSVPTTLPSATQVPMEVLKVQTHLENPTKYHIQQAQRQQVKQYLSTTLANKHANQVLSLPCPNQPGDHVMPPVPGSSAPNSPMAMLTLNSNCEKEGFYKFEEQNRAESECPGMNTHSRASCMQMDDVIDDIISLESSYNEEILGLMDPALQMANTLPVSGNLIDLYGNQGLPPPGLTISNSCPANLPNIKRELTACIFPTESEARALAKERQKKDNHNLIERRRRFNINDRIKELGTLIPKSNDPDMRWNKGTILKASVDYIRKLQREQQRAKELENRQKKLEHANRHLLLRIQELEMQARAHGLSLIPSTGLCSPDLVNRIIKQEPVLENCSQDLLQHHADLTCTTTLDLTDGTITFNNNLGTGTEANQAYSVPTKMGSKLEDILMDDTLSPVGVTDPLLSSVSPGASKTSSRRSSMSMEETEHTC

INS1 = test: beta cell apoptosis inhibitors, cytokine rescue, dose response, luminescence, retest (AID 449756); assay type: functional, cell-based; settings: Rattus norvegicus;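 further: cell death triggered by IL-1 beta plus TNF-alpha plus IFN-gamma mixture; protective hits raise ATP signal compared with cytokine alone wells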
[2] = inhibitors of PGC1a acetylation in cells, dose response, cell-based, cherry-picked samples (AID 720514); assay type: functional;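 further: potency may reflect raised or lowered acetylation signal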
Beta-galactosidase = Beta-galactosidase (Escherichia coli, UniProt Q8VNN2); test: beta-galactosidase enzyme inhibitors and activators, dose response, artefact control for CCR6 antagonist project, biochemical, E. coli enzyme, set 3 (AID 504712); assay type: functional
HEK293 [3] = test: cells; settings: Homo sapiens
HEK293 [4] = test: cells; settings: Homo sapiens; remark: listed apart in the source
[5] = molecular target: Heat shock protein HSP 90-alpha (Homo sapiens, UniProt P07900); assay type: functional, organism-based
Vero = test: cells; assay type: functional; settings: Chlorocebus sabaeus
Cytochrome P450 3A4 = Cytochrome P450 3A4 (Homo sapiens, UniProt P08684);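 further: CYP3A4 tested as one member of a cytochrome P450 panel screen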
[6] = molecular target: Voltage-gated inwardly rectifying potassium channel KCNH2 (Homo sapiens, UniProt Q12809); settings: Potency;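 further: confirmatory quantitative high-throughput screen measuring inhibition of hERG channel activity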
Voltage-gated inwardly rectifying potassium channel KCNH2, sequence (Q12809 whole entry): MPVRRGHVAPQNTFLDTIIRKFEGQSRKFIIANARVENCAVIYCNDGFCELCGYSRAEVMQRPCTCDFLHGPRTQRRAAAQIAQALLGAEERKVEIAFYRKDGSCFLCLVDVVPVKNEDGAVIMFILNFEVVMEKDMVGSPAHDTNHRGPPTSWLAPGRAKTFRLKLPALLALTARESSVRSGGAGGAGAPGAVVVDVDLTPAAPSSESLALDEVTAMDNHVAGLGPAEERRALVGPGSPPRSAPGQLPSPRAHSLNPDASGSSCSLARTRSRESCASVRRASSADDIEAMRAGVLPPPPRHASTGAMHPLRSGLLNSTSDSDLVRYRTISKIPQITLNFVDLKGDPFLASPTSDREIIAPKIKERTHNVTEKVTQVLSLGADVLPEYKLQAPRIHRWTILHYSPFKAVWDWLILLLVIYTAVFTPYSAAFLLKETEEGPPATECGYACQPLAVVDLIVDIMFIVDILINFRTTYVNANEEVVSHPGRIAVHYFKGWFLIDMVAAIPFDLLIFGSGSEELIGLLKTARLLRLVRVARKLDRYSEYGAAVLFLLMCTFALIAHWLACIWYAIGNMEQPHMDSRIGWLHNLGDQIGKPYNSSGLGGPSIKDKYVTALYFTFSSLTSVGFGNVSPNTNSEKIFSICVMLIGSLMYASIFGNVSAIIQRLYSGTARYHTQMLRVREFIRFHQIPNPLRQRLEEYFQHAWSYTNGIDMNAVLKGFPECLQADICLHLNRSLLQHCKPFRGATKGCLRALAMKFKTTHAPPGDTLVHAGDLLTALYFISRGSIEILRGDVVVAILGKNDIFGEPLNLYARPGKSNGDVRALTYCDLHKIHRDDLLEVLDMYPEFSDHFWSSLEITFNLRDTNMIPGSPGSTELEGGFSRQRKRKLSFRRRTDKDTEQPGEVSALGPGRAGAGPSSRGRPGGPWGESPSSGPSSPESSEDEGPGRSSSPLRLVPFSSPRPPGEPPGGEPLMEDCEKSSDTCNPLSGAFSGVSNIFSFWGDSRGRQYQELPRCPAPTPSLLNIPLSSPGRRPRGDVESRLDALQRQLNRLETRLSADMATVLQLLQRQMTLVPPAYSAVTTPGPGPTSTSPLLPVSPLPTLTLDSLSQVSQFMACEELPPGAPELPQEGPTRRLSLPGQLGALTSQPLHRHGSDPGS

Cytochrome P450 2C9, sequence (P11712 whole entry): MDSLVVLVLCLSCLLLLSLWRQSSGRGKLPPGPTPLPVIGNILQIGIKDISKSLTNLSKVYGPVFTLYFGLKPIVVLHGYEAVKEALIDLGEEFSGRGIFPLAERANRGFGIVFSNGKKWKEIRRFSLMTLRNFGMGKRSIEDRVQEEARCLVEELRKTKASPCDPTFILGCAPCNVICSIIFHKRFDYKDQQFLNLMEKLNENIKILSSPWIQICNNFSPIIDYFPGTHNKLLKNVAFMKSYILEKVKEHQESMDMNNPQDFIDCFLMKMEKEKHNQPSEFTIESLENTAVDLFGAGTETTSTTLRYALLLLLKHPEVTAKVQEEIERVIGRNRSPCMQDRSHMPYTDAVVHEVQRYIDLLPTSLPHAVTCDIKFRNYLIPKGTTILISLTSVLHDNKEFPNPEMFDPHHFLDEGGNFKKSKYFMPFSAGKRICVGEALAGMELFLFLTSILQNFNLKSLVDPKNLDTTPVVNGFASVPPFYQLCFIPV
Cytochrome P450 2D6, sequence (P10635 whole entry): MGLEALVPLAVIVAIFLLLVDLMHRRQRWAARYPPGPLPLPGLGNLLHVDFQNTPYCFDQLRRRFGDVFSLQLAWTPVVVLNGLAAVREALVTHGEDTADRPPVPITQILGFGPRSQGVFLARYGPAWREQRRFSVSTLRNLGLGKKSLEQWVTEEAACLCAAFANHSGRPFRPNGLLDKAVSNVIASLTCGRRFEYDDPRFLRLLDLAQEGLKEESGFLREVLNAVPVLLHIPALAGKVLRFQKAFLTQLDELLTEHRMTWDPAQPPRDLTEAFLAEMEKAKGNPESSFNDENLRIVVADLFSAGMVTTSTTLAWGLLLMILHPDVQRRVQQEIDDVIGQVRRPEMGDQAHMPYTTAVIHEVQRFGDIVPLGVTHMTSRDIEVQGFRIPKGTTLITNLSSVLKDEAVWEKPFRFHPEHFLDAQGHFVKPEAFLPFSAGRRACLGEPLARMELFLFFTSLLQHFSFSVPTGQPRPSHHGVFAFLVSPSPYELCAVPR
Cytochrome P450 3A4, sequence (P08684 whole entry): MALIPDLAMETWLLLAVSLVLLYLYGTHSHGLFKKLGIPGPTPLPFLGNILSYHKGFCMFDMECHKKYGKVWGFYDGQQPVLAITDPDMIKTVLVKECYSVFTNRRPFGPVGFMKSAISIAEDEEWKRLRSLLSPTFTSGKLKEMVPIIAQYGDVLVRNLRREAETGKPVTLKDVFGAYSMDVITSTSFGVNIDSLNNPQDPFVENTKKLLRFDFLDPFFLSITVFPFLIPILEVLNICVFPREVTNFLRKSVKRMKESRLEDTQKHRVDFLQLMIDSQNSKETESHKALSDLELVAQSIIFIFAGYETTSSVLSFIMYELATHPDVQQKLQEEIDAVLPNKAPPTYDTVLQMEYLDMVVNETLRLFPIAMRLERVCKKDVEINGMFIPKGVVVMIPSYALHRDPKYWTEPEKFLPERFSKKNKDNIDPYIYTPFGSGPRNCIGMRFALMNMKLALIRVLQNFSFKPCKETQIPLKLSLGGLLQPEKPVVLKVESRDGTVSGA
Cytochrome P450 2C19, sequence (P33261 whole entry): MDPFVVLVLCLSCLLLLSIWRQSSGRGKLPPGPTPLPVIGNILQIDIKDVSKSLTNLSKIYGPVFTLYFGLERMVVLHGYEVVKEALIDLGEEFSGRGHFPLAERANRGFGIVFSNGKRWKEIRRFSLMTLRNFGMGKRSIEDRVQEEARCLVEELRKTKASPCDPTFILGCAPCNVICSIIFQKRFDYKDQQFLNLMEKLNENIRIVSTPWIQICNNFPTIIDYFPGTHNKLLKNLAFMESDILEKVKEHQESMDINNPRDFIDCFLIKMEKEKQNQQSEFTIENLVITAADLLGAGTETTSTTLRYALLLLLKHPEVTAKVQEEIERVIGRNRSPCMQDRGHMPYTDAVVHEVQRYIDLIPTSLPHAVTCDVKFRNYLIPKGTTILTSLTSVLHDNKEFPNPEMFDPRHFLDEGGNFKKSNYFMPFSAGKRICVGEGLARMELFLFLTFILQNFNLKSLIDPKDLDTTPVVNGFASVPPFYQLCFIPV
Beta-galactosidase, sequence (Q8VNN2 whole entry): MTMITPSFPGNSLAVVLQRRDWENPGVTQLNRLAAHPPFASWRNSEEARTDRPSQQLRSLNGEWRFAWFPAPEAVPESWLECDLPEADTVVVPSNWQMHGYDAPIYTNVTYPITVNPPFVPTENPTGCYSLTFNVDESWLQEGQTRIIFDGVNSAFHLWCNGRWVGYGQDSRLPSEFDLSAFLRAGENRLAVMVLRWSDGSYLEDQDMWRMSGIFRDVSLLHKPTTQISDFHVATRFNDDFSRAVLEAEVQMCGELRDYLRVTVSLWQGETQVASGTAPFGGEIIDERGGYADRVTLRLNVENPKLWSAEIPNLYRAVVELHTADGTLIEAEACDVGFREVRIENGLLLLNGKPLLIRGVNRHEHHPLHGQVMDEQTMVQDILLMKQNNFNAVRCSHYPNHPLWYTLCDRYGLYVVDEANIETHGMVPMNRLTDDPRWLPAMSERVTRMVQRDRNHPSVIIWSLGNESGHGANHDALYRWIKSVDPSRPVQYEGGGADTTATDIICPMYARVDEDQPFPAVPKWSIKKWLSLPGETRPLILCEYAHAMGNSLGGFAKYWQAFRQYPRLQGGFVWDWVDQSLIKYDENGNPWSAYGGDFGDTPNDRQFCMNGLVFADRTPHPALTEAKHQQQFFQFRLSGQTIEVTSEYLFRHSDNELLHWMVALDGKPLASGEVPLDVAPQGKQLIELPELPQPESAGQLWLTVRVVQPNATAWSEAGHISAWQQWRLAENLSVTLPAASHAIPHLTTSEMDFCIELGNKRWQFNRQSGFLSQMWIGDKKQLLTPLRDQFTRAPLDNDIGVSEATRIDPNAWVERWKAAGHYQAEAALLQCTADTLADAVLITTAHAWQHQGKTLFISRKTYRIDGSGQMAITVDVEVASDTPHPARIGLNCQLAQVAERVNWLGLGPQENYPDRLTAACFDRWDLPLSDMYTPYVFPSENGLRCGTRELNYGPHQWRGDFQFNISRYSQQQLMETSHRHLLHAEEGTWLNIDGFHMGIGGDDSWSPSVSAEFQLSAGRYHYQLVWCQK

For `CC(C)NC(=O)C1CC(=O)N(c2ccc(F)c(Cl)c2)C1` (stereo unspecified), the AC50 (Cytochrome P450 1A2) was 2 µM (inconclusive), the AC50 (Cytochrome P450 2D6) was 14.1 µM (inconclusive) and the AC50 (Cytochrome P450 2C9) was “inconclusive”.

With `COc1ccc(NC(=O)c2ccc(C)cc2Cl)c([N+](=O)[O-])c1` the AC50 (Cytochrome P450 2C19) was 3.55 µM (inconclusive) and the AC50 (Cytochrome P450 2C9) was “inconclusive”.

In the case of `COc1cc(NC(=O)c2[nH]cnc2C(N)=O)cc(C(=O)Nc2cccc(C(F)(F)F)c2)c1`, the AC50 (A-375) is reported as 17 µM (active), the AC50 [1] is reported as 10.9 µM (active) and the AC50 (INS1) is reported as 3.48 µM (active). For the same compound, the AC50 [2] was 6.34 µM (active).

For `O=C1Nc2ccc(Br)cc2/C1=C/C(=O)c1ccccc1`, the IC50 (Beta-galactosidase) was > 66.6 µM (inactive), the EC50 (HEK293 [3]) was > 59.6 µM (inactive) and the EC50 (HEK293 [4]) was > 59.6 µM (inactive). For the same compound, the AC50 [5] was 0.986 µM (active) and the CC50 (Vero) was 19.1 µM (active).

In the case of `[Cl-].[Li+]` [CHLOROLITHIUM], the AC50 (Cytochrome P450 3A4) is reported as 31.6 µM (inconclusive) and the AC50 [6] is reported as 6.31 µM (inconclusive).
